According to patent US9340545B2, “Quinazolin-4 (3H)—one derivatives used as P13 kinase inhibitors” (Respivert Limited, priority 2011, dated 2016):

Tested on: cigarette smoke-induced cell accumulation in murine BALF
Assay: Cigarette smoke model
Format: in vivo, A/J mice

Row | SMILES | Activity in the cigarette smoke model (0.3-10 mg/kg, p.o.) | Anti-inflammatory effect as monotherapy in the cigarette smoke model (monotherapy, at the dose used for co-administration (FP dosed at 50 μg/mL))
1 | C[C@@H]1C[C@H]2[C@@H]3CCC4=CC(=O)C=C[C@]4(C)[C@@]3(F)[C@@H](O)C[C@]2(C)[C@@]1(O)C(=O)CO [dexamethasone] | inactive | 
2 | CCC(=O)O[C@]1(C(=O)SCF)[C@H](C)C[C@H]2[C@@H]3C[C@H](F)C4=CC(=O)C=C[C@]4(C)[C@@]3(F)[C@@H](O)C[C@@]21C [fluticasone propionate] |  | lacks any significant effect
